Measured values: publication PMC11106739, “Discovery and Derivatization of Tridecaptin Antibiotics with Altered Host Specificity and Enhanced Bioactivity” (ACS Chemical Biology, 2024)
≈ marks a conversion by molar mass, not a printed value. Where a SMILES comes first, the peptide text is derived from it. [ ]: non-standard residue; d: D form. The star is where a group is joined. d(aIle) = CC[C@H](C)[C@@H](N)C(=O)O; dDab = NCC[C@@H](N)C(=O)O; Octanoyl = CCCCCCCC(=O)*; Dab = NCC[C@H](N)C(=O)O

Legend:
[1] = system: Gram-positive lipid II / S. aureus USA300 (MRSA); test: Lipid II antagonization assay; format: cell-based, Staphylococcus aureus; details: compound at 8x MIC, 5-fold molar excess of Gram-positive lipid II, MHB with 0.002% polysorbate-80, 37 °C, 18 h, resazurin, triplicates
Method: Laboratory Institute (CLSI) guidelines. Gram-positive lipid II, containing lysine at position 3 of the pentapeptide, was prepared by total chemical synthesis.1,2 Lipid II in 1 : 1 chloroform : methanol (v/v) was added to a polypropylene 96-well plate (5-fold molar excess compared to test antibiotics) and the organic solvent was allowed to evaporate. Oct-TriA5 and vancomycin in MHB (50 µL, 16xMIC) were added to the wells with the 5-fold molar excess of pure Gram-positive lipid II in triplicates and to the control wells without lipid II. Single colony of S. aureus USA300 (MRSA) from a fresh blood agar plate was suspended in TSB and grown to an OD600 of 0.5. The bacterial culture then was diluted in MHB with 0.002% polysorbate-80 to reach 10^6 CFU/mL and 50 µL were mixed with test compounds to achieve the final concentration of 8xMIC for all tested compounds. The plate was incubated at 37°C for 18 h with constant shaking (600 rpm) and subsequently inspected for visible bacterial growth. To visualize the viability of the indicator strain, resazurin sodium salt solution (Merck, Dorset, UK) was added to the cultures to achieve the final concentration of 0.0015% (w/v) and incubated at RT for 1 h.
Figure S4. HPLC trace showing the reinjection of purified Oct-TriD (3). The peptide eluted as a single peak at 17.263 min using the HPLC method A.
Figure S5. […]

E. coli ATCC 25922 [2] = test: LIVE/DEAD staining (SYTO 9 / propidium iodide); format: cell-based, Escherichia coli; details: E. coli ATCC 25922, tridecaptins at 1 × MIC, polymyxin 4 μg/mL (2 × MIC), 15 min, microscopy
Method: (§1) This assay was performed according to a previously described procedure.[55],[56] Briefly, overnight cultures of E. coli ATCC 25922 and S. aureus ATCC 29213 were diluted to an OD600 of 0.2 in MHB and mixed with 1 × MIC of Oct-TriA1, Oct-TriA5, and Oct-TriD. Nisin and polymyxin B were used as positive controls at a concentration of 2-fold MIC. At the same time, green fluorescent nucleic acid stain SYTO 9 (excitation, 450–490 nm; emission, 500–550 nm) and red fluorescent nucleic acid stain propidium iodide (excitation, 574–599 nm; emission, 612–682 nm) (LIVE/DEAD Baclight Bacterial Viability Kit, Invitrogen) were added to the above cell suspensions. After mixing and incubating for 15 min in the dark at RT, cells were briefly sedimented via centrifugation and resuspended in fresh MHB. Then, the cell suspensions were loaded on 1.5% agarose pads and analyzed by a Zeiss Imager M2 microscope. Confocal images were obtained at 4 random locations for each sample and visualized using FIJI version 1.51H.[57]

S. aureus ATCC 29213 [3] = format: cell-based, Staphylococcus aureus; details: ATCC 29213, 20 h
How it was run: (§2)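 Broth microdilution MICs per CLSI in cation-adjusted Mueller Hinton broth, compounds at final 0.06 to 64 μg/mL. Direct colony suspensions at 0.5 McFarland were diluted to a target 2 × 10^5 CFU/mL; plates were incubated 20 h at 35 °C and MIC was read visually.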

S. aureus 1126387 = format: cell-based, Staphylococcus aureus; details: 1126387, 20 h
How it was run: as §2

S. aureus UAMS-1625 = format: cell-based, Staphylococcus aureus; details: S. aureus UAMS-1625 (BV18); CLSI broth dilution, cation-adjusted Mueller Hinton broth, 20 h, 35 °C, read visually
How it was run: as §2

E. coli 1214245 = format: cell-based, Escherichia coli; details: 1214245, 20 h
How it was run: as §2

E. coli 1220120 = format: cell-based, Escherichia coli; details: 1220120, 20 h
How it was run: as §2

E. coli ATCC 25922 [4] = format: cell-based, Escherichia coli; details: ATCC 25922, 20 h
How it was run: as §2

P. aeruginosa 1226072 = format: cell-based, Pseudomonas aeruginosa; details: 1226072, 20 h
How it was run: as §2

P. aeruginosa 1218019 = format: cell-based, Pseudomonas aeruginosa; details: 1218019, 20 h
How it was run: as §2

P. aeruginosa PAO1 = format: cell-based, Pseudomonas aeruginosa; details: PAO1, 20 h
How it was run: as §2

S. aureus USA300 (MRSA) = format: cell-based, Staphylococcus aureus; details: USA300, 18 h
K. pneumoniae ATCC 13883 = format: cell-based, Klebsiella pneumoniae; details: ATCC 13883, 20 h
How it was run: as §2

K. pneumoniae 1228586 = format: cell-based, Klebsiella pneumoniae; details: 1228586, 20 h
How it was run: as §2

K. pneumoniae 1227947 = format: cell-based, Klebsiella pneumoniae; details: 1227947, 20 h
How it was run: as §2

[5] = system: Gram-negative ESKAPE pathogens; format: cell-based; details: 20 h
Method: All minimum inhibitory concentrations (MICs) were determined according to the Clinical and Standards Laboratory Institute (CLSI) guidelines. In brief, agar plates were inoculated from glycerol stocks and incubated overnight at 35 °C. Peptide DMSO stocks were dispensed into 96-well round-bottom plates using a TECAN D300e dispenser. Colistin sulfate (Sigma-Aldrich) was dissolved in water and serially diluted in a cation-adjusted Mueller Hinton broth (10 μL per well). Final concentrations of the test compounds were 0.06 to 64 μg/mL. Inocula were prepared by direct colony suspension in NaCl at 0.5 MacFarland, which was further diluted 200-fold in cation-adjusted Mueller Hinton broth for a target inoculum of 2 × 10^5 colony forming units (CFUs)/mL. 100 μL portion of the prepared inoculum was added to each well of the prepared plates containing the test compounds. Plates were sealed with parafilm and incubated for 20 h at 35 °C. Images of all plates were recorded, and MIC was assessed visually.

S. aureus ATCC 29213 [6] = test: LIVE/DEAD staining (SYTO 9 / propidium iodide); format: cell-based, Staphylococcus aureus; details: S. aureus ATCC 29213, 1 × MIC, 15 min, microscopy
Method: as §1

ATCC 25922 = format: cell-based, Enterococcus faecalis; details: ATCC 25922, 20 h
How it was run: as §2

E. faecalis ATCC 29212 = format: cell-based, Enterococcus faecalis; details: ATCC 29212, 20 h
How it was run: as §2

A. baumannii IHMA 777621 = format: cell-based, Acinetobacter baumannii; details: IHMA 777621, 20 h
How it was run: as §2

A. baumannii ATCC 17978 = format: cell-based, Acinetobacter baumannii; details: ATCC 17978, 20 h
How it was run: as §2

A. baumannii HUMC1 = format: cell-based, Acinetobacter baumannii; details: HUMC1, 20 h
How it was run: as §2

E. faecium IHMA 890472 = format: cell-based, Enterococcus faecium; details: IHMA 890472, 20 h
How it was run: as §2

E. faecium ATCC 51559 = format: cell-based, Enterococcus faecium; details: ATCC 51559, 20 h
How it was run: as §2

## CN[C@H](CC(C)C)C(=O)N[C@H]1C(=O)N[C@@H](CC(N)=O)C(=O)N[C@H]2C(=O)N[C@H]3C(=O)N[C@H](C(=O)N[C@H](C(=O)O)c4cc(O)cc(O)c4-c4cc3ccc4O)[C@H](O)c3ccc(c(Cl)c3)Oc3cc2cc(c3O[C@@H]2O[C@H](CO)[C@@H](O)[C@H](O)[C@H]2O[C@H]2C[C@](C)(N)[C@H](O)[C@H](C)O2)Oc2ccc(cc2Cl)[C@H]1O [vancomycin, reference compound]
[1]
  growth of S. aureus USA300 (MRSA) after addition of lipid II: not inhibited

## polymyxin B
E. coli ATCC 25922 [2]
  LIVE/DEAD staining, membrane integrity of E. coli cells: death of half of the E. coli cells

## CCCCCCCC(=O)N[C@@H](C(=O)N[C@H](CCN)C(=O)NCC(=O)N[C@H](CO)C(=O)N[C@H](Cc1c[nH]c2ccccc12)C(=O)N[C@@H](CO)C(=O)N[C@@H](CCN)C(=O)N[C@H](CCN)C(=O)N[C@@H](Cc1c[nH]c2ccccc12)C(=O)N[C@@H](CCC(=O)O)C(=O)N[C@H](C(=O)N[C@@H](C(=O)N[C@@H](C)C(=O)O)[C@@H](C)CC)C(C)C)C(C)C [Oct-TriA5] (Octanoyl-[dV][dDab]G[dS][dW]S[Dab][dDab]WEV[d(aIle)]A-OH)
S. aureus ATCC 29213 [3]
  MIC: 8 µg/mL (≈ 5.13 µM)
S. aureus 1126387
  MIC: 8 µg/mL (≈ 5.13 µM)
S. aureus UAMS-1625
  MIC: 8 µg/mL (≈ 5.13 µM)
E. coli 1214245
  MIC: 4 µg/mL (≈ 2.56 µM)
E. coli 1220120
  MIC: 4 µg/mL (≈ 2.56 µM)
E. coli ATCC 25922 [4]
  MIC: 2 µg/mL (≈ 1.28 µM)
P. aeruginosa 1226072
  MIC: 8 µg/mL (≈ 5.13 µM)
P. aeruginosa 1218019
  MIC: 4 µg/mL (≈ 2.56 µM)
P. aeruginosa PAO1
  MIC: 16 µg/mL (≈ 10.3 µM)
[1]
  growth of S. aureus USA300 (MRSA) after addition of lipid II: not inhibited
S. aureus USA300 (MRSA)
  MIC: 8 µg/mL (≈ 5.13 µM)
K. pneumoniae ATCC 13883
  MIC: 4 µg/mL (≈ 2.56 µM)
K. pneumoniae 1228586
  MIC: 4 µg/mL (≈ 2.56 µM)
K. pneumoniae 1227947
  MIC: 4 µg/mL (≈ 2.56 µM)
[5]
  MICs, range over Gram-negative pathogens: 2 to 16 µg/mL
S. aureus ATCC 29213 [6]
  LIVE/DEAD staining, membrane integrity of S. aureus cells: had lysed
ATCC 25922
  MIC: 8 µg/mL (≈ 5.13 µM)
E. faecalis ATCC 29212
  MIC: 8 µg/mL (≈ 5.13 µM)
A. baumannii IHMA 777621
  MIC: 4 µg/mL (≈ 2.56 µM)
A. baumannii ATCC 17978
  MIC: 4 µg/mL (≈ 2.56 µM)
A. baumannii HUMC1
  MIC: 8 µg/mL (≈ 5.13 µM)
E. faecium IHMA 890472
  MIC: 8 µg/mL (≈ 5.13 µM)
E. faecium ATCC 51559
  MIC: 8 µg/mL (≈ 5.13 µM)
